Results: patent US20250339569A1, “CARBONIC ANHYDRASE IX LIGANDS” (priority 2021, published 2025)
Like-named read-outs stand apart in the source and are kept apart here.

Assays:
[1] = Biodistribution study in healthy dog (SPECT/CT, blood pharmacokinetics, urine excretion); conditions: in vivo
[2] = Biodistribution study (SPECT/CT) in HT-29 tumor-bearing mice; format: in vivo, NMRI nude mice; conditions: female, NMRI nude, mouse, in vivo, iv, total radioactivity, HT-29, In-111-labeled, Mean ± SEM
Description: (§1) The effect on tumor uptake of prior injection of gelofusine for kidney protection was investigated in mice bearing the SK-RC-52 tumor. Biodistribution was evaluated using in vivo SPECT/CT imaging. Prior to the in vivo study the compounds (ligands) were initially radiolabeled with In-111 and the stability of radiolabeled compounds was evaluated in buffer at three different timepoints.
(§2) The study was performed in female NMRI nude mice (approximately 6 weeks of age) from Janvier Labs, France, housed up to 5 mice per cage.
(§3) The column was washed with 2 mL water, and then the final product was eluted from the column in EtOH solution (50%) • The sample was formulated in PBS to the final concentration of 150 MBq/mL and 5 nmol/mL.
(§4) SK-RC-52 cells were cultured in RPMI 1640 with GlutaMax-I (Thermo Fisher Scientific #61870044) supplemented with 10% fetal bovine serum+1% penicillin/streptomycin, harvested, washed twice in RPMI 1640 and resuspended at 2×10^7 cells/mL in RPMI 1640. HT-29 cells were cultured in McCoy's 5a Medium Modified (Sigma #M9309). For inoculation of HT-29 cells, cells were harvested, washed twice in PBS and resuspended at 5×10^7 cells/mL in PBS. Cells were kept on ice until inoculation.
(§5) Animals were anaesthetized (isoflurane, 2-4% in ambient air supplemented with 100% 02) prior to tumor inoculation. The tumor cells (100 μL suspension of either SK-RC-52 cells (2×10^6 cells/animal) or HT-29 cells (5×10^6 cells/animal)) were subcutaneously inoculated in the right flank using a 1-mL syringe equipped with a 27 G needle. Tumor growth and animal weight were measured twice per week. Tumor size was measured by caliper and the volume was estimated using the following formula: 0.52×(length×width^2). When tumor sizes reached 150-250 mm^3, animals were randomized into groups (n=3) of similar average tumor volume and body weight.
(§6) Animals were injected intravenously with In-111-labeled compounds (single bolus, 22.3-31.2 MBq, ˜1 nmol ligand, injection volume: 100 μL) in the lateral tail vein using a 29 G syringe.
(§7) CT was performed with helical scan, 300 ms exposure, reconstruction resolution of 250 μm. SPECT was performed with multi-pinhole scan and a 30 s frame time. For the quantification of the radioactivity uptake, regions of interests (ROIs) were drawn over the tumor, kidney, liver, and heart (estimate of blood) identified on the images. Uptake was expressed as percent of injected dose per gram tissue (% ID/g).

HT-29 tumor = assay: as above; format: in vivo, NMRI nude mice; conditions: HT-29, In-111-labeled
Description: as §1, §2, §3, §4, §5, §6, §7

[3] = Dose range finding study by intravenous route with toxicokinetics; format: in vivo, beagle dogs; conditions: for Dose-normalized AUClast: AUClast divided by dose in μg/kg; for clearance / half-life / Vd / AUC(0-t) / level at […]: male, beagle, iv, mean n = 2; for clearance / half-life / Vd: dog, plasma; for Vd: read-out: Vss; for AUC(0-t) / level at […]: dog plasma; for level at […]: read-out: C15 min
Description: The following parameters and endpoints were evaluated: mortality, clinical observations, body weights, food consumption, local reactions, clinical pathology parameters (hematology, coagulation, and clinical chemistry), organ weights, and macroscopic examinations. Both animals were sampled for toxicokinetics (TK) on each dosing occasion (i.e., on day 1, day 5, day 9 and day 13) at: pre-dose, 15 min, 30 min, 1 h, 6 h and 24 h. Blood samples were collected in K2EDTA tubes. Plasma was prepared by centrifugation (2500 g for 10 minutes, +4° C.) within 1 hour after collection, and then frozen within 1 hour after centrifugation and stored at −80° C. […] Chromatographic separation was achieved using a Waters Acquity UPLC system with a Waters Acquity HSS T3 C18 2.1×50 mm, 1.8 μm column. Chromatography was conducted at 50° C. at a flow rate of 0.7 mL/min using a mobile phase consisting of A: acetonitrile, and B: 1% formic acid in water, according to the following linear gradient: 0 to 0.1 min: 90% B; 0.1 to 4.1 min: from 90% B to 74% B; 4.1 to 4.2 min: from 74% B to 5% B; 4.2 to 4.6 min: 5% B; 4.6 to 4.7 min: from 5% B to 90% B; 4.7-5.1 min; 90% B. Detection was performed using a Sciex API6600 TOF mass spectrometer. Toxicokinetic parameters were estimated from concentration-time data using Phoenix pharmacokinetic software (version 6.4, Certara L. P.). A non-compartmental approach consistent with the bolus intravenous injection was used for parameter estimation.

CC(C)C[C@@H]1NC(=O)[C@H](Cc2cccc(NC(=O)CCCS(N)(=O)=O)c2)NC(=O)[C@H](CC(=O)O)NC(=O)[C@H]2CCCN2C(=O)[C@H](CCC(=O)O)NC(=O)[C@@H](NC(=O)[C@H](CCC(N)=O)NC(=O)CN2CCN(C(=O)CN3CCN(CC(=O)O)CCN(CC(=O)O)CCN(CC(=O)O)CC3)CC2)CSCc2cccc(c2)CSC[C@@H](C(N)=O)NC(=O)[C@H](CO)NC(=O)[C@H](Cc2c[nH]c3ccccc23)NC(=O)[C@H]([C@@H](C)O)NC1=O [[^111In]In-DPI-4452, metal not drawn]
half-life [1]: 55.6 min | half-life ([1]; iv): 5.43 min

CC(C)C[C@@H]1NC(=O)[C@H](Cc2cccc(NC(=O)CCCS(N)(=O)=O)c2)NC(=O)[C@H](CC(=O)O)NC(=O)[C@H]2CCCN2C(=O)[C@H](CCC(=O)O)NC(=O)[C@@H](NC(=O)[C@H](CCC(N)=O)NC(=O)CN2CCN(C(=O)CN3CCN(CC(=O)O)CCN(CC(=O)O)CCN(CC(=O)O)CC3)CC2)CSCc2cccc(c2)CSC[C@@H](C(N)=O)NC(=O)[C@H](CO)NC(=O)[C@H](Cc2c[nH]c3ccccc23)NC(=O)[C@H]([C@@H](C)O)NC1=O [DPI-4452, DOTA-PPAc-Gln-[Cys(3MeBn)-Glu-pro-Asp-Af3(Cpsu)-Leu-Thr-Trp-Ser-Cys]-NH2]
tissue uptake at 4 h ([2]; read-out: Blood uptake at 4 h p.i.): 0.04 ± 0.002 %ID/g | tissue uptake at 24 h ([2]; read-out: Kidney uptake at 24 h p.i.): 1.41 ± 0.11 %ID/g | tissue uptake at 4 h ([2]; read-out: Liver uptake at 4 h p.i.): 0.12 ± 0.005 %ID/g | Time to peak uptake in tumor (HT-29 tumor): 2 h | % remaining tumor uptake at 24 h p.i. (HT-29 tumor; Mean ± SEM): 65.8 ± 3.8% | Dose-normalized AUClast ([3]; Day 1, […] i.v.): 1.36 | Dose-normalized AUClast ([3]; Day 5, 0.08 mg/kg i.v.): 1.46 | Dose-normalized AUClast ([3]; Day 9, 0.4 mg/kg i.v.): 2.31 | Dose-normalized AUClast ([3]; Day 13, 0.8 mg/kg i.v.): 4.42 | dose proportionality of exposure ([3]; male beagle dogs, 25 to 800 μg/kg i.v.): exposure increased more than dose-proportionally | tolerability ([3]; male beagle dogs, i.v. bolus, ascending 25, 80, 400, 800 μg/kg/day): well tolerated systemically and locally | clearance ([3]; Day 1, 0.025 mg/kg i.v.): 11.7 mL/min/kg | half-life ([3]; Day 1, 0.025 mg/kg i.v.): 15 min | Vd ([3]; Day 1, 0.025 mg/kg i.v.): 0.22 L/kg | clearance ([3]; Day 9, 0.4 mg/kg i.v.): 6.83 mL/min/kg | half-life ([3]; Day 9, 0.4 mg/kg i.v.): 29.4 min | Vd ([3]; Day 9, 0.4 mg/kg i.v.): 0.24 L/kg | clearance ([3]; Day 13, 0.8 mg/kg i.v.): 3.52 mL/min/kg | half-life ([3]; Day 13, 0.8 mg/kg i.v.): 52.8 min | Vd ([3]; Day 13, 0.8 mg/kg i.v.): 0.32 L/kg | AUC(0-t) ([3]; Day 1, 0.025 mg/kg i.v.): 34 ng·h/mL | level at […] ([3]; Day 1, 0.025 mg/kg i.v.): 46.8 ng/mL | AUC(0-t) ([3]; Day 5, 0.08 mg/kg i.v.): 117 ng·h/mL | level at […] ([3]; Day 5, 0.08 mg/kg i.v.): 156 ng/mL | AUC(0-t) ([3]; Day 9, 0.4 mg/kg i.v.): 926 ng·h/mL | level at […] ([3]; Day 9, 0.4 mg/kg i.v.): 880 ng/mL | AUC(0-t) ([3]; Day 13, 0.8 mg/kg i.v.): 3530 ng·h/mL | level at […] ([3]; Day 13, 0.8 mg/kg i.v.): 2000 ng/mL
